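48-hour exposure; five concentrations; linearly interpolated endpoints. At the GI50, growth is halved. TGI is the concentration that stops growth completely.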
How the values were obtained:
Assay in all cases: NCI tumour cell line growth inhibition, 48 h
786-0 renal = test system: 786-0 renal
MDA-MB-231 breast = test system: MDA-MB-231 breast
HS 578T breast = test system: HS 578T breast
OVCAR-8 ovarian = test system: OVCAR-8 ovarian
SK-MEL-5 melanoma = test system: SK-MEL-5 melanoma
T-47D breast = test system: T-47D breast
CCRF-CEM leukemia = test system: CCRF-CEM leukemia
SF-295 CNS = test system: SF-295 CNS
MALME-3M melanoma = test system: MALME-3M melanoma
NCI-H23 lung = test system: NCI-H23 lung

Compound | GI50 (786-0 renal) | TGI (786-0 renal) | GI50 (MDA-MB-231 breast) | TGI (MDA-MB-231 breast) | GI50 (HS 578T breast) | TGI (HS 578T breast) | GI50 (OVCAR-8 ovarian) | TGI (OVCAR-8 ovarian) | GI50 (SK-MEL-5 melanoma) | TGI (SK-MEL-5 melanoma) | GI50 (T-47D breast) | TGI (T-47D breast) | GI50 (CCRF-CEM leukemia) | TGI (CCRF-CEM leukemia) | GI50 (SF-295 CNS) | TGI (SF-295 CNS) | GI50 (MALME-3M melanoma) | TGI (MALME-3M melanoma) | GI50 (NCI-H23 lung) | TGI (NCI-H23 lung)
CN(C)Cc1ccc(NC(=O)c2cncc(C#Cc3cnc(N)c4ncccc34)c2)cc1F | 1.86 µM | 3.6 µM | 1.6 µM | 3.13 µM | 7.85 µM | 27.7 µM | 2.31 µM | 5.02 µM | 1.7 µM | 3.29 µM | 10.3 µM | 54.7 µM | 2.29 µM | 6.66 µM | 10.6 µM | 26.5 µM | 1.61 µM | 3.19 µM | 13.7 µM | 34 µM
O=C(Nc1cc(F)c(F)cc1C(=O)O)c1ccc(-n2ccnc2)nn1 | > 100 µM | > 100 µM | > 100 µM | > 100 µM | > 100 µM | > 100 µM | > 100 µM | > 100 µM | > 100 µM | > 100 µM | > 100 µM | > 100 µM | 98.2 µM | > 100 µM | > 100 µM | > 100 µM | > 100 µM | > 100 µM | > 100 µM | > 100 µM
Cc1nc2sc3c(N)ncnc3c2c(C)c1C | > 25 µM | > 25 µM | > 25 µM | > 25 µM | 24.9 µM | > 25 µM | > 25 µM | > 25 µM | > 25 µM | > 25 µM | > 25 µM | > 25 µM | > 25 µM | > 25 µM | > 25 µM | > 25 µM | > 25 µM | > 25 µM | > 25 µM | > 25 µM
COc1ccc(-c2cc(-c3ccc(Cl)cc3)nc(NCCCCNc3ccnc4cc(Cl)ccc34)n2)cc1 | 1.62 µM | 3.02 µM | 1.72 µM | 3.28 µM | 14.6 µM | 38.9 µM | 1.9 µM | 4.28 µM | 1.7 µM | 3.08 µM | 12.3 µM | 31.4 µM | 2.6 µM | > 100 µM | 8.02 µM | 24.2 µM | 1.75 µM | 3.36 µM | 2.61 µM | 9.3 µM
CCCc1nc(Cl)c(Cl)c(Cl)n1 | – | > 31.6 µM | – | 67.9 µM | – | 44.3 µM | – | 51 µM | – | > 100 µM | – | > 100 µM | – | > 44.2 µM | – | > 100 µM | – | > 51.4 µM | – | > 100 µM
COc1ccc2c(O)c(/C=C3\N=Nc4ncccc43)oc2c1C[C@@H]1CCNC[C@H]1F | 0.362 µM | 1.59 µM | 0.728 µM | 2.77 µM | 1.58 µM | 5.78 µM | 0.277 µM | 1.6 µM | 0.869 µM | 8.35 µM | 2.32 µM | 11.8 µM | 0.141 µM | 0.993 µM | 0.723 µM | 4.03 µM | 1.89 µM | 5.23 µM | 0.861 µM | 3.51 µM
OC1CCCC2CCC[N-]C12.OC1CCCC2CCC[N-]C12.[O]=[V][OH] (configuration not stated) | 7.08 µM | 24.8 µM | 3.55 µM | 16.5 µM | 21.2 µM | > 100 µM | 2.98 µM | > 100 µM | 5.57 µM | 46.2 µM | 0.825 µM | 26.6 µM | 0.493 µM | 12.2 µM | 9.84 µM | 76.9 µM | 5.03 µM | > 100 µM | 7.22 µM | 52.6 µM
CCN(CC)CCN1c2nc3ccccc3cc2Sc2cc3ccccc3nc21 | 2.17 µM | 4.64 µM | 1.58 µM | 4.03 µM | 1.73 µM | 4.61 µM | 2.43 µM | 8.15 µM | 1.36 µM | 2.69 µM | 3.09 µM | 12.5 µM | 1.84 µM | 4.73 µM | 1.56 µM | 3.45 µM | 1.57 µM | 3.12 µM | 2.51 µM | 10.6 µM
C#CC1(O)C(COP(=O)(O)OCC2OC(n3cc(F)c(=O)[nH]c3=O)CC2O)OC(n2ccc(N)nc2=O)C1O (configuration not stated) | < 0.01 µM | > 100 µM | < 0.0133 µM | 0.315 µM | < 0.0265 µM | 8.44 µM | < 0.01 µM | – | < 0.01 µM | 0.0412 µM | < 0.0238 µM | – | < 0.01 µM | – | < 0.01 µM | 4.26 µM | < 0.0118 µM | 0.444 µM | < 0.0139 µM | 0.449 µM
O=C(Nc1cc(Cl)ccc1O)c1cccc(Nc2ccnc(C(F)(F)F)c2)c1 | 3.56 µM | 19.3 µM | 2.63 µM | 26.7 µM | 8.27 µM | 41.2 µM | 3.77 µM | 32.1 µM | 1.3 µM | 3.83 µM | 1.02 µM | 7.51 µM | 1.93 µM | 6.8 µM | 2.38 µM | 11.1 µM | 2.22 µM | 11.2 µM | 0.771 µM | 7.74 µM
Fc1ccc(-c2nn3ccccc3c2-c2ccncc2)cc1 | > 25 µM | > 25 µM | > 25 µM | > 25 µM | > 25 µM | > 25 µM | > 25 µM | > 25 µM | > 22.8 µM | > 25 µM | > 21 µM | > 25 µM | > 25 µM | > 25 µM | > 25 µM | > 25 µM | > 25 µM | > 25 µM | > 25 µM | > 25 µM
CCN(CC)c1ccc(-c2cc(-c3cc(OC)c(OC)c(OC)c3)nc(N3CCC(O)CC3)c2C#N)cc1 | 0.337 µM | 20.3 µM | 0.214 µM | 1.77 µM | 3.94 µM | > 100 µM | 0.441 µM | 7.44 µM | 0.156 µM | 0.365 µM | 0.495 µM | 3.8 µM | 0.6 µM | > 100 µM | 0.169 µM | 0.435 µM | 0.303 µM | 1.18 µM | 0.87 µM | 4.68 µM

— PubChem BioAssay (NCI)
